Assay results taken from patent US20100284927A1, “USE OF MRI CONTRAST AGENTS FOR EVALUATING THE TREATMENT OF TUMORS” (University of Utah Research Foundation, priority 2007, published 2010).
Several values for one entry are separate records, joined by “and”; a condition that tells them apart may be missing. Identical values can stand only once. Marks after values point to notes of the source that are not given here.

Columns and labels:
[1] = test system: MDA-MB-231 human breast cancer tumors; assay: Contrast enhanced 2D spin echo MRI, SI enhancement of tumors (section I); assay type: in vivo, athymic nude mice; conditions: 2D SE images; for SI enhancement ratio (SI post/SI pre) of the whole untreated tumor: Gd-(DTPA-BMA) 0.1 mmol-Gd/kg, GDCC-40 0.05 mmol-Gd/kg i.v.; for residual tumor enhancement ratio (SI post/SI pre): residual tumor after treatment, Gd-(DTPA-BMA) 0.1, GDCC-40 0.05 mmol-Gd/kg i.v.
[2] = test system: HT-29 human colon carcinoma; assay: DCE-MRI assessment of anti-angiogenic effect of Avastin, K^trans and fPV of tumor rim; assay type: in vivo, NCr-nu/nu nude mice; conditions: for K^trans 36 h after treatment / fpv 36 h after treatment: 36 h after initiating Avastin 200 μg/mouse i.p.; for K^trans 7 days after treatment / fpv 7 days after treatment: 7 days after initiating Avastin 200 μg/mouse i.p. every 2 days; for K^trans pretreatment / fpv pretreatment: before Avastin, GDCC40K 0.05, Omniscan 0.1 mmol-Gd/kg
[3] = test system: MDA-MB-231 human breast cancer tumors; assay: DCE-MRI with linear compartmental model, PV and FLR, SI time curves (section I); assay type: in vivo, athymic nude mice; conditions: for FLR, tumor center / FLR, tumor rim / FLR, whole tumor: fractional leakage rate; for FLR, tumor center / FLR, tumor rim / FLR, whole tumor / PV, tumor center / PV, tumor rim / PV, whole tumor: GDCC-40 0.05, Gd-DTPA-BMA 0.1 mmol-Gd/kg; for PV, tumor center / PV, tumor rim / PV, whole tumor: plasma volume; for PV values (range over tumor regions, Table 5) / estimated FLR values (range over tumor regions, Table 5): tumor center to tumor rim
[4] = test system: MDA-MB-231 human breast cancer tumors; assay: DCE-MRI with linear compartmental model, PV, FLR and PS (section II); assay type: in vivo, athymic nude mice
[5] = test system: MDA-MB-231 human breast cancer tumors; assay: 2D spin echo MRI with various doses of GDCC-40 (section II); assay type: in vivo, athymic nude mice; conditions: 2D SE images
[6] = reference (36); cited from earlier work
human VEGF-A = conditions: in vivo; cited from earlier work
[7] = test system: HT-29 human colon carcinoma; assay: Effect of Avastin on growth of HT-29 colon cancer; assay type: in vivo, NCr-nu/nu nude mice; conditions: 36 h after Avastin-treatment, 200 μg/mouse i.p.; pre-treatment 508±185 mm^3
Procedure: The study protocol was approved by the local ethics committee for animal care and use. HT-29 human colon carcinoma cell line was purchased from American Type Culture Collection (ATCC, Manassas, Va.) with ATCC number HTB-38™. HT-29 cell line was cultured using ATCC complete growth medium (5 McCoy's Medium with 10% fetal bovine serum).
Athymic female NCr-nu/nu nude mice at 4 weeks were purchased form National Cancer Institute at Frederick, M D. Concentrated HT-29 cells in complete medium was mixed with Matrigel basement membrane matrix (BD Biosciences, San Jose, Calif.) at 1:1 ratio. 2×10^6 cells in 100 μl mixture were implanted s.c. in the flank of 12 mice weighing about 23 g.
Animals were selected for study when the tumors reached approximately 1 cm in diameter (about 3 weeks after tumor cells inoculation) and were randomly divided into two groups (each group n=6, group1 and group2). One group (group1) underwent DCE-MRI with macromolecular contrast agent-GDCC40K (MW: 40 KDa), and another group (group2) underwent DCE-MRI with small molecular weight contrast agent—Ominiscan (MW: 574 Da). Before treatment, Ominiscan was injected at 0.1 mmol-Gd/kg for […], GDCC40OK (40K Da) was injected at 0.05 mmol-Gd/kg for […]. […]
In addition, tumor size of all animals was determined using a caliper during the study.

[8] = in mice body; cited from earlier work

Sequence of human VEGF-A (P15692 207-311 limits assumed): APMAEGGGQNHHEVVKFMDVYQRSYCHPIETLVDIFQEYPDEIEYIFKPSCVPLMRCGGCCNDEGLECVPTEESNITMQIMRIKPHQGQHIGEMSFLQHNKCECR

| Molecule | SI enhancement ratio (SI post/SI pre) of the whole untreated tumor [1] | residual tumor enhancement ratio (SI post/SI pre) [1] | K^trans 36 h after treatment [2] | fpv 36 h after treatment [2] | K^trans 7 days after treatment [2] | fpv 7 days after treatment [2] | K^trans pretreatment [2] | fpv pretreatment [2] | time at which SI of muscle reached plateau ([3]; DCE-MRI time course) | time at which SI of tumor rim reached a maximum ([3]; DCE-MRI time course) | FLR, tumor center [3] | FLR, tumor rim [3] | FLR, whole tumor [3] | PV, tumor center [3] | PV, tumor rim [3] | PV, whole tumor [3] | PV values (range over tumor regions, Table 5) [3] | estimated FLR values (range over tumor regions, Table 5) [3] [h⁻¹] | also measured |
| --- | --- | --- | --- | --- | --- | --- | --- | --- | --- | --- | --- | --- | --- | --- | --- | --- | --- | --- | --- |
| CNC(=O)CN(CCN(CCN(CC(=O)[O-])CC(=O)NC)CC(=O)[O-])CC(=O)[O-].[Gd+3] [Gd-DTPA-BMA, gadodiamide, reference compound] | 1.60±0.19 | 1.66±0.10 | 0.066 ± 0.047 | 0.062 ± 0.039 | 0.069 ± 0.055 | 0.137 ± 0.034 | 0.07 ± 0.013 | 0.102 ± 0.047 | about 1.5 min | ~7 min | 9.93 ± 3.19 h⁻¹ | 28.42 ± 4.36 h⁻¹ | 20.86 ± 1.18 h⁻¹ | 0.098 ± 0.019 | 0.190 ± 0.018 | 0.138 ± 0.020 | 0.098 to 0.190 | 14.93 to 28.42 | time at which tumor rim/muscle SI ratio reached plateau ([3]; DCE-MRI time course): ≤ 2 min |
| (Gd-DTPA)-cystamine copolymers [GDCC-40] | 1.65±0.21 | 1.51±0.19 | 0.008 ± 0.004 | 0.008 ± 0.005 | 0.028 ± 0.029 | 0.030 ± 0.022 | 0.014 ± 0.002 | 0.028 ± 0.005 | about 1.5 min | about 12 min | 3.24 ± 1.10* 1/hr | 5.21 ± 0.88* 1/hr | 4.57 ± 0.91* 1/hr | 0.058 ± 0.046 | 0.082 ± 0.038 | 0.076 ± 0.032 | 0.058 to 0.082 | 3.24 to 5.21 | FLR, untreated tumor ([4]; 0.01 mmol-Gd/kg): 6.05 and 6.05 ± 3.58; PS, untreated tumor ([4]; 0.01 mmol-Gd/kg): 0.997 ± 0.613; PV, untreated tumor ([4]; 0.01 mmol-Gd/kg): 0.124 and 0.124 ± 0.045; FLR, untreated tumor ([4]; 0.025 mmol-Gd/kg): 5.06 and 5.06 ± 1.84; PS, untreated tumor ([4]; 0.025 mmol-Gd/kg): 0.611 ± 0.351; PV, untreated tumor ([4]; 0.025 mmol-Gd/kg): 0.123 and 0.123 ± 0.059; FLR, untreated tumor ([4]; 0.05 mmol-Gd/kg): 3.95 ± 0.81; PS, untreated tumor ([4]; 0.05 mmol-Gd/kg): 0.517 ± 0.216; PV, untreated tumor ([4]; 0.05 mmol-Gd/kg): 0.103 ± 0.043; ratio of SI at the tumor rim to SI of the muscle ([3]; at 15 min): more than 3; time after injection to reach contrast (SI of tumor rim to SI of muscle) similar to Gd-DTPA-BMA ([3]; mouse, in vivo): about 4 min; untreated tumor enhancement ([5]; 0.01 mmol-Gd/kg): 0.14±0.03; untreated tumor enhancement ([5]; 0.025 mmol-Gd/kg): 0.26±0.05; untreated tumor enhancement ([5]; 0.05 mmol-Gd/kg): 0.62±0.19 |
| Albumin-Gd-DTPA |  |  |  |  |  |  |  |  |  |  |  |  |  |  |  |  |  |  | FLR values estimated using Albumin-Gd-DTPA [6]: 1.27 to 8.10 h⁻¹; PV values estimated using Albumin-Gd-DTPA [6]: 0.023 to 0.065 |
| Bevacizumab [Avastin] |  |  |  |  |  |  |  |  |  |  |  |  |  |  |  |  |  |  | dose enough to completely inhibit human VEGF-A (human VEGF-A): 50-100 μg/mouse; tumor size [7]: 510±171 mm^3; terminal half-life [8]: 1-2 weeks |
